Test results as given in patent US20110071094A1, “(D)-ALLOSE INDUCING PROGRAMMED CELL DEATH IN HORMONE REFRACTORY PROSTATE CANCER LINES” (INDUSTRY-ACADEMIC COOPERATION FOUDATION, GYEONGSANG …, priority 2008, published 2011).

Experiments:
Type in all cases: cell-based, human
[1] = tested on: DU145 cell line; experiment: Cell cycle analysis, PI staining, flow cytometry; settings: for cells in G0-G1 phase: 48 h, untreated control 31.9%
Description: DU145 cell line (1×10^6 cells in triplicate culture plates) was treated with D-allose (0, 20 and 40 mM) for 48 and 72 h. The cells were treated with trypsin and harvested with PBS, centrifuged and resuspended the pellet in cold PBS-methanol mixture (1:9) for 1 h at 4° C. The cells were centrifuged, pellet washed and resuspended with PBS again, and incubated with RNAse (20 mg/ml in PBS) for 30 min at 37° C. The cells were chilled over ice and stained with PI (1 mg/ml in PBS) for 1 h and analyzed by flow cytometry using CellQuest software, version 3.0, performed on a FACSCalibur, fluorescence (FL2-A) detector equipped with 488 nm argon laser light source and 623 nm band pass filter (Becton Dickinson, San Jose, Calif., USA). Total 10,000 cells were acquired for analysis by CellQuest software and the quantification of FACS data was performed using ModFit LT software, version 2.0, (Becton Dickinson, San Jose, Calif., USA). The cell population was gated according to the characteristics side scatter and forward scatter intensities of FACS. The number of all gated living cells was taken as 100%, from which the percentage of cells in G0-G1, S and G2-M phase was calculated and presented in the right side of the histogram.

[2] = tested on: caspase 3; experiment: Western blot analysis of caspase 3 protein in DU145; settings: DU145, 0, 20 and 40 mM, 72 h
Description: After 0, 20 and 40 mM of D-allose treatments for 72 h, DU145 cell line (1×10^6 cells in triplicate culture plates) was harvested into cell lysis buffer (Cell Signaling, Danvers, Mass., USA) supplemented with 1 mM PMSF. The cells were then sonicated, centrifuged and protein concentration was measured by Bradford assay with the Bio-Rad protein assay solution using bovine serum albumin (BSA) as standard. Proteins (30 μg) were separated on a 12.5% SDS-PAGE under reducing conditions and transferred onto a PVDF membrane (Santa Cruz Biotechnology, Santa Cruz, Calif., USA). Prestained protein marker, broad range: 6-175 kDa (New England Biolabs Inc., Ipswich, Mass., USA) run in parallel for detection of the molecular weights of the proteins. Membrane was blocked with 5% (w/v) skimmed milk in order to reduce non-specific binding and immunoblotting was performed using rabbit derived anti-Bcl-2, anti-Bax, anti-Caspase 3 and anti-PARP antibodies (1:500; Santa Cruz Biotechnology, Santa Cruz, Calif., USA). […] Membrane was probed with a goat derived horseradish peroxidase-conjugated anti-rabbit IgG (1:1000; Santa Cruz Biotechnology, Santa Cruz, Calif., USA), and proteins were detected by the enhanced chemiluminescence (ECL) detection system according to the vendor's protocol (Amersham Biosciences, Piscataway, N.J., USA) followed by X-ray exposure. […]

[3] = tested on: Bax mRNA; experiment: RT-PCR of Bax mRNA in DU145; settings: DU145, 72 h, 0, 20 and 40 mM; relative to reduced Bcl-2 mRNA
Description: To identify the relative levels of expression of Bcl-2, Bax and Caspase 3 mRNAs after 0, 20 and 40 mM of D-allose treatments for 72 h, RT-PCR was performed. DU145 cell line (1×10^6 cells in triplicate culture plates) was harvested as mentioned above and total RNA was extracted using TRIzol reagent (Invitrogen, Carlsbad, Calif., USA) following a standard laboratory protocol. The RNA purity and concentrations were determined. Then 2 μg of total RNA was reversely transcribed to single-stranded cDNA using Oligo(dT)12-18 primer (Invitrogen, Carlsbad, Calif., USA) with M-MLV reverse transcriptase (Promega, Madison, Wis., USA). For PCR reaction, 4 μl of cDNA was reacted with 20 pmol each of the forward and reverse primers (Bioneer Corporation, Seoul, South Korea), and GoTaq® Green Master Mix […] containing PCR buffer, 25 mM magnesium chloride, 10 mM dNTP mix and Taq enzyme (Promega, Madison, Wis., USA), and amplified. […] The molecular sizes of the amplified products were determined by comparison with the molecular weight marker (100 by DNAladder; Promega, Madison, Wis., USA) run parallel with the PCR products. The densities of mRNA bands were analyzed by Molecular Analyst™, version 1.4.1 (Bio-Rad, Hercules, Calif., USA).

[4] = tested on: cyt C; experiment: Mitochondrial cyt C release and nuclear morphology, immunofluorescence; settings: DU145, 20 and 40 mM, 48 h
Description: The in situ analysis of cyt C was carried out by immunofluorescence technique. […] Cyt C was detected by using mouse anti-cyt C antibody and rabbit anti-mouse FITC-labeled antibody (1:250 and 1:200, respectively; Santa Cruz Biotechnology, Santa Cruz, Calif., USA). DU145 cell line treated with FITC-labeled secondary antibody alone was considered as negative control. Subsequently, chromatin was stained with PI (1 mg/ml in PBS) for 20 min in dark and slides were mounted with Prolong Antifade reagent (Molecular Probes, Eugene, Oreg., USA). Cyt C (green) and chromatin (red) staining patterns were acquired by use of a confocal laser scanning microscope (Fluoview FV 1000, Olympus, Japan).

In the case of `O=C[C@H](O)[C@H](O)[C@H](O)[C@H](O)CO` [D-allose], the “cells in G0-G1 phase” value ([1]; DU145, 20 mM) is reported as 48.7%, the “cells in G0-G1 phase” value ([1]; DU145, 40 mM) is reported as 57.5% and the “cell number in G2-M phase and S phase” value ([1]; DU145, 48 h) is reported as “concomitant decrease”. The “cleaved caspase 3 product” value [2] was “concomitant increase”, the “full length caspase 3 protein expression” value [2] was “remarkable dose-dependent decrease” and the “Bax mRNA expression” value [3] was “opposite effect”. The “cyt C release from mitochondria and chromatin condensation” value [4] was “release of cyt C from mitochondria into cytosol and chromatin condensation”.
